The results in this text go back to US20140005165A1, “SUBSTITUTED 3-AZABICYCLO[3.1.0]HEXANE DERIVATIVES USEFUL AS CCR2 ANTAGONISTS” (priority 2011, published 2014).

The structures appear in SMILES notation. Some results are limits rather than exact numbers.

For the first assay, the target named is T1, human CCR2 (Homo sapiens, UniProt P41597).
T1 construct: expressed in transfected cells; host or cells: Ba/F3 cells (membrane preparation)
T1 sequence (P41597 whole entry): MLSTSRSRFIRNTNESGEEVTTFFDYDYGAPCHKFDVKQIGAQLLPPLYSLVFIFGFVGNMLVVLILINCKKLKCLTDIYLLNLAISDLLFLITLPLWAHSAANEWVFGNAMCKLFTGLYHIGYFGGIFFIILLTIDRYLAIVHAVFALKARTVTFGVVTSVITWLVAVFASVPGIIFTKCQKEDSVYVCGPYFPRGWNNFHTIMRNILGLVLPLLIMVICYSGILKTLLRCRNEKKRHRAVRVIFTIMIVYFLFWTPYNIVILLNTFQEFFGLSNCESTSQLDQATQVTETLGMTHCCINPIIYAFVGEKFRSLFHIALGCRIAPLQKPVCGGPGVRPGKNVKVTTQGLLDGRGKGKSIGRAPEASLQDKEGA
In words: CCR2 Membrane Binding Assay (SPA radio-ligand binding, 125I-rhMCP-1). Conditions: membranes from Ba/F3 cells transfected with human CCR2; 0.03 nM 125I-rhMCP-1; 4 h room temperature. Here is the method:
The radio-ligand binding assay was done using scintillation proximity assay (SPA) technology. Briefly, membranes (1 μg per assay point) from Ba/F3 cells transfected with human CCR2, and wheat germ agglutinin-coated SPA beads (80 μg per point; Amersham, Arlington Heights, Ill.), were pre-incubated for 30 min at room temperature in CCR2 buffer (50 mM HEPES (pH=7.4), 10 mM MgCl2, 10 mM NaCl, 1 mM CaCL2, 0.1% BSA, 10 μg/ml Saponin). At this point pre-bound SPA bead, membrane complex was incubated at room temperature for 4 h with varying concentrations of punitive CCR2 antagonists (in 1% DMSO, final) and 0.03 nM ^125I-rhMCP-1 in CCR2Buffer (S.A. 2200 Ci/mmol, PerkinElmer Life and Analytical Science, Boston, Mass.; NEX332). Binding competition was measured using a 1450 Microbeta Trilux counter (Wallac, Gaithersburg, Md.). Binding constants (IC50 and slope) were calculated using GraphPad Prism software (GraphPad Software, Inc., La Jolla Calif.).
Broadly, the IC50 is the concentration at which inhibition is half-maximal. Lower therefore signals inhibition by little substance. For the compound `O=C(CNC(=O)[C@H]1[C@@H]2CN(C3CCC(c4ccccc4)CC3)C[C@@H]21)Nc1cccc(C(F)(F)F)c1` (stereo partly shown) [Compound 4], the half-maximal inhibitory concentration (IC50) was 3.5 nM.

The same assay, now with this note: membranes from Ba/F3 cells transfected with human CCR2; 0.03 nM 125I-rhMCP-1; class symbols.
`O=C(NCCc1cccc(C(F)(F)F)c1)C1[C@H]2CN(C3CCCCC3)C[C@@H]12` (stereo partly shown) [Compound 1] returned an IC50 of 51 to 200 nM.

In turn, `O=C(CNC(=O)[C@H]1[C@@H]2CN(C3CCCCC3)C[C@@H]21)Nc1cccc(C(F)(F)F)c1` [Compound 2] yielded an IC50 of 51 to 200 nM.

In the case of `O=C([C@H]1[C@@H]2CN([C@H]3CC[C@@H](c4ccccc4)CC3)C[C@@H]21)N1CC[C@@H](Nc2nccc(C(F)(F)F)n2)C1` [Compound 6], the IC50 was in the range of 51 to 200 nM.

Regarding `FC(F)(F)c1cccc(CN(Cc2cccc(C(F)(F)F)c2)c2nnc([C@H]3[C@@H]4CN([C@H]5CC[C@@H](c6ccccc6)CC5)C[C@@H]43)o2)c1` [Compound 8], the IC50 was 201 to 700 nM.

Consider `CCC(C)N1C[C@@H]2[C@H](C1)[C@H]2C(=O)NCC(=O)Nc1cccc(C(F)(F)F)c1` (stereo partly shown) [Compound 9], for which the IC50 lay within 51 to 200 nM.

In the case of `O=C(NCCc1ccccc1)[C@H]1[C@@H]2CN([C@H]3CC[C@@H](c4ccccc4)CC3)C[C@@H]21` [Compound 10], the “IC50 (nM)” value is “D (compounds with IC50 values between 701 nM and 110 nM are designated as D class compounds)”.

The compound `O=C(CNC(=O)[C@H]1[C@@H]2CN(C3CCCC3)C[C@@H]21)Nc1cccc(C(F)(F)F)c1` [Compound 11] registered an IC50 of 51 to 200 nM.

Turning to `CC(C1CC1)N1C[C@@H]2[C@H](C1)[C@H]2C(=O)NCC(=O)Nc1cccc(C(F)(F)F)c1` (stereo partly shown) [Compound 12], the IC50 fell in the range of 201 to 700 nM.

For `CCC(CC)N1C[C@@H]2[C@H](C1)[C@H]2C(=O)NCC(=O)Nc1cccc(C(F)(F)F)c1` [Compound 13], the half-maximal inhibitory concentration (IC50) lay within 51 to 200 nM.

As to `CCCC(C)N1C[C@@H]2[C@H](C1)[C@H]2C(=O)NCC(=O)Nc1cccc(C(F)(F)F)c1` (stereo partly shown) [Compound 14], the “IC50 (nM)” value is “D (compounds with IC50 values between 701 nM and 110 nM are designated as D class compounds)”.

`COCC(C)N1C[C@@H]2[C@H](C1)[C@H]2C(=O)NCC(=O)Nc1cccc(C(F)(F)F)c1` (stereo partly shown) [Compound 15] registered an IC50 of 201 to 700 nM.

`O=C(NC1Cc2ccccc2C1)[C@H]1[C@@H]2CN([C@H]3CC[C@@H](c4ccccc4)CC3)C[C@@H]21` [Compound 16]: the “IC50 (nM)” value was “D (compounds with IC50 values between 701 nM and 110 nM are designated as D class compounds)”.

With `CC(C)N1C[C@@H]2C(C(=O)NCCc3cccc(C(F)(F)F)c3)[C@@H]2C1` (stereo partly shown) [Compound 18], the IC50 fell in the range of 201 to 700 nM.

`CC1CCC(N2C[C@@H]3[C@H](C2)[C@H]3C(=O)NCC(=O)Nc2cccc(C(F)(F)F)c2)C1` (stereo partly shown) [Compound 19] gave an IC50 of 201 to 700 nM.

Turning to `CC(N1C[C@@H]2[C@H](C1)[C@H]2C(=O)NCC(=O)Nc1cccc(C(F)(F)F)c1)C1(C)CC1` (stereo partly shown) [Compound 20], the “IC50 (nM)” value is “D (compounds with IC50 values between 701 nM and 110 nM are designated as D class compounds)”.

For the compound `O=C(CNC(=O)C1C2CN(C3CCOCC3)CC21)Nc1cccc(C(F)(F)F)c1` (stereo not shown) [Compound 21], the IC50 is 51 to 200 nM.

`O=C(CNC(=O)[C@H]1[C@@H]2CN(C3CCCOC3)C[C@@H]21)Nc1cccc(C(F)(F)F)c1` (stereo partly shown) [Compound 22] yielded an IC50 of 51 to 200 nM.

As for `O=C(CNC(=O)[C@H]1[C@@H]2CN(C3CC(CO)C3)C[C@@H]21)Nc1cccc(C(F)(F)F)c1` (stereo partly shown) [Compound 23], the IC50 was in the range of 201 to 700 nM.

Consider `O=C([C@H]1[C@@H]2CN([C@H]3CC[C@@H](c4ccccc4)CC3)C[C@@H]21)N1CC(Oc2ccccc2)C1` [Compound 25], for which the “IC50 (nM)” value is “D (compounds with IC50 values between 701 nM and 110 nM are designated as D class compounds)”.

`O=C(CNC(=O)[C@H]1[C@@H]2CN(C3C[C@@H]4CC[C@H]3C4)C[C@@H]21)Nc1cccc(C(F)(F)F)c1` (stereo partly shown) [Compound 27] returned an IC50 of 51 to 200 nM.

In the case of `O=C1CCC(N2C[C@@H]3[C@H](C2)[C@H]3C(=O)NCC(=O)Nc2cccc(C(F)(F)F)c2)CC1` [Compound 29], the “IC50 (nM)” value is “D (compounds with IC50 values between 701 nM and 110 nM are designated as D class compounds)”.

Compound `CC1CCC(N2C[C@@H]3[C@H](C2)[C@H]3C(=O)NCC(=O)Nc2cccc(C(F)(F)F)c2)CC1` (stereo partly shown) [Compound 30] displayed an IC50 of 51 to 200 nM.

`CC1CCCCC1N1C[C@@H]2[C@H](C1)[C@H]2C(=O)NCC(=O)Nc1cccc(C(F)(F)F)c1` (stereo partly shown) [Compound 31] gave a half-inhibitory concentration (IC50) of 51 to 200 nM.

As to `CC1CCCC(N2C[C@@H]3[C@H](C2)[C@H]3C(=O)NCC(=O)Nc2cccc(C(F)(F)F)c2)C1` (stereo partly shown) [Compound 32], the IC50 lay within 201 to 700 nM.

On to `O=C(CNC(=O)[C@H]1[C@@H]2CN(C3CCCCCC3)C[C@@H]21)Nc1cccc(C(F)(F)F)c1` [Compound 33], for which the half-inhibitory concentration (IC50) lay within 201 to 700 nM.

As for `O=C(CNC(=O)[C@H]1[C@@H]2CN(C3CCC(O)CC3)C[C@@H]21)Nc1cccc(C(F)(F)F)c1` (stereo partly shown) [Compound 34], the IC50 fell in the range of 201 to 700 nM.

Consider `O=C(CNC(=O)[C@H]1[C@@H]2CN(C3CCSCC3)C[C@@H]21)Nc1cccc(C(F)(F)F)c1` [Compound 35], for which the “IC50 (nM)” value is “D (compounds with IC50 values between 701 nM and 110 nM are designated as D class compounds)”.

In the case of `O=C(NC1CCc2ccc(F)cc2C1)[C@H]1[C@@H]2CN([C@H]3CC[C@@H](c4ccccc4)CC3)C[C@@H]21` (stereo partly shown) [Compound 36], the IC50 lay within 201 to 700 nM.

`CC=C1CCC(N2C[C@@H]3[C@H](C2)[C@H]3C(=O)NCC(=O)Nc2cccc(C(F)(F)F)c2)CC1` (stereo partly shown) [Compound 37]: the “IC50 (nM)” value is “D (compounds with IC50 values between 701 nM and 110 nM are designated as D class compounds)”.

For the compound `CC1(C)CCCC(N2C[C@@H]3[C@H](C2)[C@H]3C(=O)NCC(=O)Nc2cccc(C(F)(F)F)c2)C1` (stereo partly shown) [Compound 38], the IC50 lay in the range of 201 to 700 nM.

Turning to `COC1CCC(N2C[C@@H]3[C@H](C2)[C@H]3C(=O)NCC(=O)Nc2cccc(C(F)(F)F)c2)CC1` (stereo partly shown) [Compound 39], the “IC50 (nM)” value was “D (compounds with IC50 values between 701 nM and 110 nM are designated as D class compounds)”.

`N#Cc1cccc(C2CCN(C(=O)[C@H]3[C@@H]4CN([C@H]5CC[C@@H](c6ccccc6)CC5)C[C@@H]43)C2)c1` (stereo partly shown) [Compound 40] registered an IC50 of 51 to 200 nM.

For `N#Cc1ccc(C2CCN(C(=O)[C@H]3[C@@H]4CN([C@H]5CC[C@@H](c6ccccc6)CC5)C[C@@H]43)C2)cc1` (stereo partly shown) [Compound 41], the IC50 is 201 to 700 nM.

In the case of `O=C(NCc1cccc(C(F)(F)F)c1)[C@H]1[C@@H]2CN([C@H]3CC[C@@H](c4ccccc4)CC3)C[C@@H]21` [Compound 42], the IC50 lay within 51 to 200 nM.

`O=C1CC2CC(N3C[C@@H]4[C@H](C3)[C@H]4C(=O)NCC(=O)Nc3cccc(C(F)(F)F)c3)CC2C1` (stereo partly shown) [Compound 44] showed an IC50 of 201 to 700 nM.

`CC(C)C1CCC(N2C[C@@H]3[C@H](C2)[C@H]3C(=O)NCC(=O)Nc2cccc(C(F)(F)F)c2)CC1` (stereo partly shown) [Compound 45] came in with an IC50 of 201 to 700 nM.

Take `O=C(NCCc1cccc(C(F)(F)F)c1)C1[C@H]2CN(C3CCCC3)C[C@@H]12` (stereo partly shown) [Compound 46]: the half-maximal inhibitory concentration (IC50) is 201 to 700 nM.

Regarding `O=C(NCCc1cccc(C(F)(F)F)c1)[C@H]1[C@@H]2CN([C@H]3CC[C@@H](c4ccccc4)CC3)C[C@@H]21` [Compound 48], the IC50 was < 50 nM.

In turn, `O=C(CNC(=O)[C@H]1[C@@H]2CN(C3CC(c4ccccc4)C3)C[C@@H]21)Nc1cccc(C(F)(F)F)c1` (stereo partly shown) [Compound 49] showed an IC50 of 51 to 200 nM.

As for `CC(CCc1ccccc1)N1C[C@@H]2[C@H](C1)[C@H]2C(=O)NCC(=O)Nc1cccc(C(F)(F)F)c1` (stereo partly shown) [Compound 50], the “IC50 (nM)” value is “D (compounds with IC50 values between 701 nM and 110 nM are designated as D class compounds)”.

`CC(C)(C)C1CCC(N2C[C@@H]3[C@H](C2)[C@H]3C(=O)NCC(=O)Nc2cccc(C(F)(F)F)c2)CC1` (stereo partly shown) [Compound 54]: the “IC50 (nM)” value is “D (compounds with IC50 values between 701 nM and 110 nM are designated as D class compounds)”.

For the compound `CC(=O)NC1CCC(N2C[C@@H]3[C@H](C2)[C@H]3C(=O)NCC(=O)Nc2cccc(C(F)(F)F)c2)CC1` (stereo partly shown) [Compound 55], the IC50 lay within 201 to 700 nM.

With `COC(=O)[C@H]1CC[C@@H](N2C[C@@H]3[C@H](C2)[C@H]3C(=O)NCC(=O)Nc2cccc(C(F)(F)F)c2)CC1` [Compound 57], the IC50 is < 50 nM.

Consider `COC(=O)[C@H]1CC[C@H](N2C[C@@H]3[C@H](C2)[C@H]3C(=O)NCC(=O)Nc2cccc(C(F)(F)F)c2)CC1` [Compound 58], for which the IC50 was 201 to 700 nM.

Take `O=C([C@H]1[C@@H]2CN([C@H]3CC[C@@H](c4ccccc4)CC3)C[C@@H]21)N1CC(c2cccc(C(F)(F)F)c2)C1` [Compound 59]: the IC50 was in the range of 201 to 700 nM.

`O=C([C@H]1[C@@H]2CN([C@H]3CC[C@@H](c4ccccc4)CC3)C[C@@H]21)N1CCc2ncc(C(F)(F)F)cc2C1` [Compound 61]: the IC50 fell in the range of 201 to 700 nM.

Take `O=C(NCCCc1cccc(C(F)(F)F)c1)[C@H]1[C@@H]2CN([C@H]3CC[C@@H](c4ccccc4)CC3)C[C@@H]21` [Compound 62]: the IC50 lay in the range of 51 to 200 nM.

Turning to `O=C(CNC(=O)[C@H]1[C@@H]2CN(C3CC[C@H](c4ccccc4)C3)C[C@@H]21)Nc1cccc(C(F)(F)F)c1` (stereo partly shown) [Compound 64], the 50% inhibitory concentration (IC50) was in the range of 51 to 200 nM.
